Source: patent publication US12605371B2, “Combination therapy for cancer” (The Board of Trustees of the Leland Stanford Junior …, priority 2020, dated 2026)
Entries after “also recorded” stand apart in the source; their conditions may differ.

Columns and labels:
B16 cells [1] = assay: B16 pulmonary metastasis model, mice fed DE chow; format: in vivo, mouse
Description: Animals were monitored daily and sacrificed after 2 weeks. […] B16 metastasis model: 0.5×10^6 B16 cells were injected via tail vein into mice. After sacrifice, the lung was isolated and the number of metastatic nodules on surface was counted on both sides, before analyzing the left lobe for melanin determination. The left lobe of lung from each mouse was incubated in 1N NaOH/10% DMSO for 2 hr at 80° C. before centrifugation at 12,000 rpm for 10 min at room temperature. The absorbance at 470 nm of the supernatant was measured and compared to a standard of synthetic melanin (Sigma, St. Louis, MO). Lung was weighed before the start of process and melanin content was expressed as μg/mg protein determined by protein assay of lung tissue.

B16 tumors = assay: B16 subcutaneous (flank) tumor model, mice fed dabigatran etexilate chow; format: in vivo, mouse
Description: B16 subcutaneous tumor inoculation: B16 cells were grown until confluent and 2×10^6 cells were inoculated subcutaneously into WT, OPN-KI and OPN-KO mice. Mice were monitored daily for tumor growth. Tumor size was measured and volume calculated using the equation (width×width×length)/2. Animals were euthanized using CO2 and blood collected by cardiac puncture and tumors were isolated carefully. Blood was centrifuged at 2500 rpm for 20 min to prepare plasma and stored at −80° C. Tumors were weighed and measured. Part of the tumor was stored in formaldehyde for immunohistochemistry, part of it was frozen and stored at −80° C. for preparation of tumor lysates for OPN ELISAs. […] Animals were monitored daily and sacrificed after 2 weeks.

[2] = system: factor Xa-protease-activated receptor 2 signaling in TAMs; conditions: in vivo; cited from earlier work
B16 cells [3] = assay: Apoptosis assay (camptothecin, Annexin V), B16 cells; format: cell-based, mouse; conditions: 10 nM, 20 μM camptothecin, 4 hr
Description: Apoptosis assay: 1×10^5 B16 cells were cultured in DMEM without serum overnight before addition of 20 μM camptothecin (Abcam, Burlingame, CA) in the presence of BSA or OPN fragments (10 nM). Cells were then incubated for 4 hr before addition of 200 μl of binding buffer. The plate was centrifuged at 400 g for 5 min and supernatant discarded. Annexin V FITC stain (Cayman chemicals, Ann Arbor, MI) was added to the cells and incubated at RT for 10 min in the dark. Cells were centrifuged as described above and 100 μl of binding buffer was added to each cell and fluorescence intensity measured at 485/535 nm (excitation/emission). Apoptotic index was calculated by dividing the camptothecin-treated cells with untreated cells.

B16 cells [4] = assay: Cell migration assay (transwell), B16 cells; format: cell-based, mouse; conditions: 10 nM, 24 hr
Description: Cell migration assay: 10^5 B16 cells were placed in the upper chamber of a 6.5 mm transwell with a pore size of 8.0 μm (Sigma, XX). Cells were allowed to settle before the lower chamber was filled with BSA or various OPN fragments (10 nM) in presence of 0.2 mM MnCl2 (Sigma, St Louis, MO) and incubated at 37° C. for 24 hr. Cells that migrated to the lower chamber were centrifuged and resuspended into 90 ul of 1×HBSS (Gibco Life Technologies, Langley, OK) with 10 μl of CCK-8 staining solution (Dojindo Molecular Technologies Inc., Rockville, MD). Cells were incubated for 2 hr before measuring absorbance at 450 nm.

B16 cells [5] = assay: Cell adhesion assay, B16 cells; format: cell-based, mouse; conditions: wells coated at 20 nM
Description: Cell adhesion assay: Wells in 96-well plate was coated with either BSA or different OPN fragments at a concentration of 20 nM in coating buffer (Gibco Life Technologies, Langley, OK) and incubated at 4° C. overnight. The plate was then washed thrice with PBS before blocking with 3% BSA for 1 hr. The cells were washed thrice with 1×HBSS containing 0.2 mM MnCl2. 2×10^6 B16 or RAW cells were added to the wells and incubated at 37° C. for 1 hr. Wells were washed and cells fixed with absolute ethanol for 20 min before staining with 0.1% crystal violet. Cells were washed repeatedly with PBS until no violet color was visible, lysed with 0.5% Triton X-100 and absorbance determined at 570 nm.

RAW cells = assay: PGE2 assay, RAW cells; format: cell-based, mouse; conditions: 10 nM
Description: PGE2 assay: 5×10^5 RAW cells were plated onto 6-well plate in serum free medium with either BSA or various OPN fragments (10 nM). Cells were cultured overnight before collecting the media and determining PGE2 by ELISA (Enzo, Farmingdale, NY).

thrombin = thrombin (Homo sapiens, UniProt P00734); assay: Thrombin treatment of E. coli produced GST-OPN and GST-OPNR153A, SDS-PAGE; format: biochemical; conditions: thrombin 10 nM, time course
Description: FIGS. 1A-1D: B16 tumors grow slower in OPN-KO and OPN-KI than WT mice in the flank model. FIG. 1A. Model of OPN cleavages and its functional modulation by thrombin and carboxypeptidase N or B2. OPN-FL=OPN-full length (SEQ ID NO:5); OPN-R=OPN-Arg (SEQ ID NO:6); OPN-L=OPN-Leu (SEQ ID NO:8). DC=dendritic cells. FIG. 1B. Time course of thrombin treatment (10 nM) of E. coli produced GST-OPN and GST-OPNR153A analyzed by SDS-PAGE. FL=full length, NTF=N-terminal fragment, CTF=C-terminal fragment (SEQ ID NO:7). FIG. 1C. Daily determination of B16 tumor volume grown on WT, OPN-KI and OPN-KO mice. FIG. 1D. B16 tumor weight after sacrifice. All data are shown as mean±SEM. Statistical significance was calculated by one-way ANOVA followed by Tukey's multiple comparison test.
The OPN-KI (OPNR153A) mice, similar to OPN-KO mice, were fertile and healthy before challenge, without any phenotypic changes observable in CBC, liver function and kidney function (FIGS. 9 and 10)

[6] = parenteral; particularly limited small cell lung cancers; cited from earlier work
B16 cells [7] = conditions: in vivo; cited from earlier work
[8] = OPN-KI or OPN-KO mice, trend, compared to untreated mice of same genotype
[9] = WT mice, compared to control WT mice, 13 days after inoculation

CCCCCCOC(=O)N=C(N)c1ccc(NCc2nc3cc(C(=O)N(CCC(=O)OCC)c4ccccn4)ccc3n2C)cc1 [DE, dabigatran etexilate]
melanin content of lungs (B16 cells [1]; [8]): decreased
pulmonary metastases (B16 cells [1]; [8]): fewer
melanin content of lungs (B16 cells [1]; [9]): reduced
metastatic nodules/lung (B16 cells [1]; [9]): fewer
effect on B16 local tumor growth, weight and volume (in words) (B16 tumors; OPN-KI (and OPN-KO) mice): did not further reduce; also recorded: no effect
tumor weight after sacrifice (B16 tumors; OPN-KI mice, DE-containing chow, in g): 0.8±0.9
tumor volume after sacrifice (B16 tumors; OPN-KI mice, DE-containing chow, mean±SEM): 0.73±0.3 cm^3
B16 tumor growth (in words) (B16 tumors; WT mice): tumor suppression; also recorded: grew slower
tumor volume after sacrifice (B16 tumors; WT mice, DE-containing chow from 4 days before B16 inoculation until sacrifice, mean±SEM): 1.0±0.2 cm^3
tumor weight after sacrifice (B16 tumors; WT mice, DE-containing chow, mean±SEM): 1.0 ± 0.2 g

O=C(NC[C@H]1CN(c2ccc(N3CCOCC3=O)cc2)C(=O)O1)c1ccc(Cl)s1 [rivaroxaban]
antitumor immunity (in words) [2]: promote antitumor immunity

OPN-CTF: C-terminal OPN fragment after thrombin cleavage (SEQ ID NO:7) (SKSKKFRR; OPN-CTF)
anti-apoptotic effect on B16 cells (in words) (B16 cells [3]): no anti-apoptotic effect
B16 chemotaxis/migration relative to OPN-FL (in words: significantly increased or not) (B16 cells [4]): comparable to OPN-FL

OPN-FL: recombinant full length osteopontin (SEQ ID NO:5) (RGDSVVYGLRSKSKKFRR; OPN-FL)
reduction of B16 cell apoptosis compared to BSA (B16 cells [3]): ~3 fold
B16 cell migration compared to BSA (in words) (B16 cells [4]): increased migration

OPN-L: OPN-R with C-terminal arginine removed by CPN or CPB2 (SEQ ID NO:8) (RGDSVVYGL; OPN-L)
reduction of B16 cell apoptosis compared to BSA (B16 cells [3]): ~3 fold
B16 cell adhesion compared to OPN-R (in words) (B16 cells [5]): reduced adhesion
B16 chemotaxis/migration relative to OPN-FL (in words: significantly increased or not) (B16 cells [4]): not

OPN-R: thrombin-cleaved OPN N-terminal fragment ending in Arg (SEQ ID NO:6) (RGDSVVYGLR; OPN-R)
secretion of PGE2 by RAW cells (in words) (RAW cells): significantly enhanced
reduction of B16 cell apoptosis compared to BSA (B16 cells [3]): ~3 fold
B16 cell migration compared to BSA (in words) (B16 cells [4]): increased migration

OPNR153A: mutant OPN with arginine in the thrombin cleavage site mutated to alanine (R153A), expressed in E. coli
thrombin cleavage (in words) (thrombin): resistant to thrombin cleavage

heparin
survival of cancer patients (in words) [6]: survival benefit

hirudin
metastasis of B16 cells (in words) (B16 cells [7]): prevented metastasis
